Assay results: ChEMBL document CHEMBL3885881, “DrugMatrix”

Species on record: Rattus norvegicus
Test: DrugMatrix - Regimen: Daily Repeat
Type: toxicity, organism-based, Sprague-Dawley
Parameters: regimen Daily Repeat, gender Male, age 6-8 weeks
Conditions: in vivo, po, route oral GAVAGE, vehicle .5 % CMC; for ABSOLUTE BASOPHIL / ABSOLUTE EOSINOPHIL / ABSOLUTE LYMPHOCYTE / ABSOLUTE MONOCYTE / ABSOLUTE SEGMENTED NEUTROPHIL / BASOPHIL / EOSINOPHIL / ERYTHROCYTE COUNT / HEMATOCRIT / HEMOGLOBIN / LEUKOCYTE COUNT / LYMPHOCYTE / MEAN CORPUSCULAR HEMOGLOBIN / MEAN CORPUSCULAR HEMOGLOBIN CONCENTRATION / MEAN CORPUSCULAR VOLUME / MONOCYTE / NEUTROPHIL / NUCLEATED RED BLOOD CELLS / PLATELET COUNT: tissue Blood; for ALANINE AMINOTRANSFERASE / ALBUMIN / ALKALINE PHOSPHATASE / ASPARTATE AMINOTRANSFERASE / BLOOD UREA NITROGEN / CARBON DIOXIDE / CHLORIDE / CHOLESTEROL / CREATINE PHOSPHOKINASE / CREATININE / GLUCOSE / LACTATE DEHYDROGENASE / LIPASE / PHOSPHORUS / POTASSIUM / SODIUM / TOTAL BILIRUBIN / TOTAL PROTEIN / URIC ACID: tissue Plasma
[1] = 0 mg/kg, 72 h, dose level Control, time 3 day
[2] = 0 mg/kg, 120 h, dose level Control, time 5 day
[3] = 100 mg/kg, 72 h, dose level Low, time 3 day

CCc1ccc(C(=O)C(C)CN2CCCCC2)cc1 (centres undefined) [EPERISONE]
ABSOLUTE BASOPHIL [1]: 0 CELLS/uL
ABSOLUTE EOSINOPHIL [1]: 284.5 CELLS/uL
ABSOLUTE LYMPHOCYTE [1]: 11670.5 CELLS/uL
ABSOLUTE MONOCYTE [1]: 420.83 CELLS/uL
ABSOLUTE SEGMENTED NEUTROPHIL [1]: 1024.17 CELLS/uL
BASOPHIL [1]: 0%
EOSINOPHIL [1]: 1.67%
ERYTHROCYTE COUNT [1]: 5.38 x10E6/uL
HEMATOCRIT [1]: 34.05%
HEMOGLOBIN [1]: 12.75 G/DL
LEUKOCYTE COUNT [1]: 13.4 x10E3/uL
LYMPHOCYTE [1]: 88.33%
MEAN CORPUSCULAR HEMOGLOBIN [1]: 23.73 pg
MEAN CORPUSCULAR HEMOGLOBIN CONCENTRATION [1]: 37.43 G/DL
MEAN CORPUSCULAR VOLUME [1]: 63.4 fL
MONOCYTE [1]: 2.83%
NEUTROPHIL [1]: 7.17%
NUCLEATED RED BLOOD CELLS [1]: 0 /100WBC
PLATELET COUNT [1]: 1184.67 x10E3/uL
ALANINE AMINOTRANSFERASE [1]: 45.33 u/L
ALBUMIN [1]: 4.3 G/DL
ALKALINE PHOSPHATASE [1]: 388.83 u/L
ASPARTATE AMINOTRANSFERASE [1]: 84.83 u/L
BLOOD UREA NITROGEN [1]: 15.5 mg/dL
CARBON DIOXIDE [1]: 27 mmol/L
CHLORIDE [1]: 101.8 MEQ/L
CHOLESTEROL [1]: 76.67 mg/dL
CREATINE PHOSPHOKINASE [1]: 301 u/L
CREATININE [1]: 0.21 mg/dL
GLUCOSE [1]: 168.83 mg/dL
LACTATE DEHYDROGENASE [1]: 294.83 u/L
LIPASE [1]: 9.8 u/L
PHOSPHORUS [1]: 13.25 mg/dL
POTASSIUM [1]: 6.41 MEQ/L
SODIUM [1]: 143.72 MEQ/L
TOTAL BILIRUBIN [1]: 0.22 mg/dL
TOTAL PROTEIN [1]: 5.98 G/DL
URIC ACID [1]: 1.5 mg/dL
ABSOLUTE BASOPHIL [2]: 0 CELLS/uL
ABSOLUTE EOSINOPHIL [2]: 190.67 CELLS/uL
ABSOLUTE LYMPHOCYTE [2]: 12549.5 CELLS/uL
ABSOLUTE MONOCYTE [2]: 276 CELLS/uL
ABSOLUTE SEGMENTED NEUTROPHIL [2]: 1067.17 CELLS/uL
BASOPHIL [2]: 0%
EOSINOPHIL [2]: 1.33%
ERYTHROCYTE COUNT [2]: 5.66 x10E6/uL
HEMATOCRIT [2]: 35.92%
HEMOGLOBIN [2]: 13.65 G/DL
LEUKOCYTE COUNT [2]: 14.08 x10E3/uL
LYMPHOCYTE [2]: 89%
MEAN CORPUSCULAR HEMOGLOBIN [2]: 24.12 pg
MEAN CORPUSCULAR HEMOGLOBIN CONCENTRATION [2]: 38.03 G/DL
MEAN CORPUSCULAR VOLUME [2]: 63.47 fL
MONOCYTE [2]: 2%
NEUTROPHIL [2]: 7.67%
NUCLEATED RED BLOOD CELLS [2]: 0.17 /100WBC
PLATELET COUNT [2]: 1251.67 x10E3/uL
ALANINE AMINOTRANSFERASE [2]: 43.33 u/L
ALBUMIN [2]: 4.22 G/DL
ALKALINE PHOSPHATASE [2]: 365.67 u/L
ASPARTATE AMINOTRANSFERASE [2]: 83.67 u/L
BLOOD UREA NITROGEN [2]: 18.17 mg/dL
CARBON DIOXIDE [2]: 28.67 mmol/L
CHLORIDE [2]: 103.5 MEQ/L
CHOLESTEROL [2]: 71.5 mg/dL
CREATINE PHOSPHOKINASE [2]: 284.5 u/L
CREATININE [2]: 0.21 mg/dL
GLUCOSE [2]: 161.67 mg/dL
LACTATE DEHYDROGENASE [2]: 259.67 u/L
LIPASE [2]: 9.5 u/L
PHOSPHORUS [2]: 12.45 mg/dL
POTASSIUM [2]: 6.49 MEQ/L
SODIUM [2]: 144.25 MEQ/L
TOTAL BILIRUBIN [2]: 0.2 mg/dL
TOTAL PROTEIN [2]: 6.1 G/DL
URIC ACID [2]: 1.73 mg/dL
ABSOLUTE BASOPHIL [3]: 0 CELLS/uL
ABSOLUTE EOSINOPHIL [3]: 0 CELLS/uL
ABSOLUTE LYMPHOCYTE [3]: 7799.67 CELLS/uL
ABSOLUTE MONOCYTE [3]: 242.67 CELLS/uL
ABSOLUTE SEGMENTED NEUTROPHIL [3]: 691 CELLS/uL
BASOPHIL [3]: 0%
EOSINOPHIL [3]: 0%
ERYTHROCYTE COUNT [3]: 5.44 x10E6/uL
HEMATOCRIT [3]: 34.63%
HEMOGLOBIN [3]: 12.8 G/DL
LEUKOCYTE COUNT [3]: 8.73 x10E3/uL
LYMPHOCYTE [3]: 89.33%
MEAN CORPUSCULAR HEMOGLOBIN [3]: 23.6 pg
MEAN CORPUSCULAR HEMOGLOBIN CONCENTRATION [3]: 36.97 G/DL
MEAN CORPUSCULAR VOLUME [3]: 63.73 fL
MONOCYTE [3]: 2.67%
NEUTROPHIL [3]: 8%
NUCLEATED RED BLOOD CELLS [3]: 0 /100WBC
PLATELET COUNT [3]: 1233.67 x10E3/uL
ALANINE AMINOTRANSFERASE [3]: 50 u/L
ALBUMIN [3]: 4.33 G/DL
ALKALINE PHOSPHATASE [3]: 470.67 u/L
ASPARTATE AMINOTRANSFERASE [3]: 82 u/L
BLOOD UREA NITROGEN [3]: 13.67 mg/dL
CARBON DIOXIDE [3]: 29.33 mmol/L
CHLORIDE [3]: 101.5 MEQ/L
CHOLESTEROL [3]: 90.33 mg/dL
CREATINE PHOSPHOKINASE [3]: 213.33 u/L
CREATININE [3]: 0.21 mg/dL
GLUCOSE [3]: 138.33 mg/dL
LACTATE DEHYDROGENASE [3]: 128.67 u/L
LIPASE [3]: 9 u/L
PHOSPHORUS [3]: 11.63 mg/dL
POTASSIUM [3]: 6.14 MEQ/L
SODIUM [3]: 146.7 MEQ/L
TOTAL BILIRUBIN [3]: 0.3 mg/dL
TOTAL PROTEIN [3]: 6.07 G/DL
URIC ACID [3]: 0.97 mg/dL
